Test results from ChEMBL document CHEMBL5505992, “Novel membrane-targeting isoxanthohumol-amine conjugates for combating methicillin-resistant Staphylococcus aureus (MRSA) infections” (Eur J Med Chem, 2024).
≈ marks a conversion by molar mass, not a printed value. Calls of active or inactive are those of the source. The calls are words filed in the database; no cut-off is given here.

Legend:
Cell membrane [1] = assay: Induction of cytoplasmic membrane depolarization in methicillin-resistant Staphylococcus aureus clinical isolate MRSA-16 assessed as increase in fluorescence intensity at 32 ug/ml measured every 2 mins for 20 mins by SYTOX green staining based analysis; type: cell membranes; conditions: dose 32.0 µg/ml
Cell membrane [2] = assay: Induction of cytoplasmic membrane depolarization in methicillin-resistant Staphylococcus aureus clinical isolate MRSA-16 assessed as fold increase in fluorescence intensity at 32 ug/ml measured every 2 mins for 20 mins by SYTOX green staining based analysis; type: cell membranes; conditions: dose 32.0 µg/ml
Cell membrane [3] = assay: Induction of cell membrane depolarization in methicillin-resistant Staphylococcus aureus clinical isolate MRSA-16 assessed as fold increase in fluorescence intensity at 32 ug/ml measured every 2 mins for 20 mins by DISC3(5) staining based analysis; type: cell membranes; conditions: dose 32.0 µg/ml
Staphylococcus aureus [4] = assay: Drug resistance, ratio of MIC for Staphylococcus aureus ATCC 29213 after 15 passages exposure to MIC for Staphylococcus aureus ATCC 29213 during first exposure; type: functional
Staphylococcus aureus [5] = assay: Antibacterial activity against Staphylococcus aureus ATCC 29213 at sub-inhibitory concentration measured after 4 passages for 16 to 18 hrs; type: functional, organism-based; conditions: time 16-18 hrs
Staphylococcus aureus [6] = assay: Bactericidal activity against methicillin-resistant Staphylococcus aureus clinical isolate MRSA-16 assessed as inhibition of bacterial growth at 8 times MIC measured within 0.5 to 1 hrs by time kill assay; type: functional, organism-based; conditions: time 0.5-1 hrs
Staphylococcus aureus [7] = assay: Antibacterial activity against methicillin-resistant Staphylococcus aureus infected in Kunming mouse skin infection model assessed as decrease in bacterial load at 4 mg/kg,sc measured after 24 hrs; type: functional
Staphylococcus aureus [8] = assay: Antibacterial activity against methicillin-resistant Staphylococcus aureus infected in Kunming mouse skin infection model assessed as effect on skin abscesses in dorsal surface at 4 mg/kg,sc measured after 24 hrs; type: functional, organism-based
Staphylococcus aureus [9] = assay: Antibacterial activity against methicillin-resistant Staphylococcus aureus infected in Kunming mouse skin infection model assessed as reduction in inflammatory cells at 4 mg/kg,sc measured after 24 hrs; type: functional, organism-based
Staphylococcus aureus [10] = assay: Antibacterial activity against methicillin-resistant Staphylococcus aureus infected in Kunming mouse skin infection model assessed as decrease in bacterial load at 4 mg/kg,sc measured after 24 hrs relative to control; type: functional; parameters: scale not given: the % may be the effect or the level left
Staphylococcus aureus [11] = assay: Bactericidal activity against Staphylococcus aureus ATCC 29213 assessed as inhibition of bacterial growth at 8 times MIC measured within 0.5 to 1 hrs by time kill assay; type: functional, organism-based; conditions: time 0.5-1 hrs
Staphylococcus aureus [12] = assay: Antibacterial activity against methicillin-resistant Staphylococcus aureus infected in Kunming mouse skin infection model assessed as effect on skin abscesses at 4 mg/kg,sc measured after 24 hrs; type: functional, organism-based
Staphylococcus aureus [13] = assay: Antibacterial activity against methicillin-resistant Staphylococcus aureus infected in Kunming mouse skin infection model assessed as reduction in number of bacterial cells at 4 mg/kg,sc measured after 24 hrs; type: functional, organism-based
Staphylococcus aureus [14] = assay: Antibacterial activity against methicillin-resistant Staphylococcus aureus clinical isolate MRSA-22 measured after 16 to 18 hrs by CLSI method; type: functional; conditions: time 16-18 hrs
Staphylococcus aureus [15] = assay: Antibacterial activity against methicillin-resistant Staphylococcus aureus clinical isolate MRSA-17 measured after 16 to 18 hrs by CLSI method; type: functional; conditions: time 16-18 hrs
Staphylococcus aureus [16] = assay: Antibacterial activity against methicillin-resistant Staphylococcus aureus clinical isolate MRSA-20 measured after 16 to 18 hrs by CLSI method; type: functional; conditions: time 16-18 hrs
Staphylococcus aureus [17] = assay: Antibacterial activity against methicillin-resistant Staphylococcus aureus clinical isolate MRSA-23 measured after 16 to 18 hrs by CLSI method; type: functional; conditions: time 16-18 hrs
[18] = Selectivity index, ratio of HC50 for hemolytic activity in sheep erythrocytes to MIC for antibacterial activity against Staphylococcus aureus ATCC 29213; type: toxicity, cell-based; conditions: read-out: Selectivity Index
Staphylococcus aureus [19] = assay: Antibacterial activity against methicillin-resistant Staphylococcus aureus clinical isolate MRSA-16 measured after 16 to 18 hrs by CLSI method; type: functional; conditions: time 16-18 hrs
Staphylococcus aureus [20] = assay: Antibacterial activity against methicillin-resistant Staphylococcus aureus clinical isolate MRSA-11 measured after 16 to 18 hrs by CLSI method; type: functional; conditions: time 16-18 hrs
Escherichia coli = assay: Antibacterial activity against Escherichia coli ATCC25922 measured after 16 to 18 hrs by CLSI method; type: functional; conditions: time 16-18 hrs
Staphylococcus aureus [21] = assay: Antibacterial activity against Staphylococcus aureus ATCC 29213 measured after 16 to 18 hrs by CLSI method; type: functional; conditions: time 16-18 hrs
Staphylococcus aureus [22] = assay: Antibacterial activity against methicillin-resistant Staphylococcus aureus clinical isolate MRSA-21 measured after 16 to 18 hrs by CLSI method; type: functional; conditions: time 16-18 hrs
Staphylococcus aureus [23] = assay: Antibacterial activity against methicillin-resistant Staphylococcus aureus clinical isolate MRSA-13 measured after 16 to 18 hrs by CLSI method; type: functional; conditions: time 16-18 hrs
Staphylococcus aureus [24] = assay: Antibacterial activity against methicillin-resistant Staphylococcus aureus clinical isolate MRSA-14 measured after 16 to 18 hrs by CLSI method; type: functional; conditions: time 16-18 hrs
[25] = Hemolytic activity in sheep erythrocytes incubated for 1 hr by absorbance based analysis; type: toxicity, cell-based, Ovis aries, Erythrocyte
Staphylococcus aureus [26] = assay: Antibacterial activity against methicillin-resistant Staphylococcus aureus clinical isolate MRSA-18 measured after 16 to 18 hrs by CLSI method; type: functional; conditions: time 16-18 hrs

Row | Compound | MIC (Staphylococcus aureus [14]) [µg/mL] | MIC (Staphylococcus aureus [15]) [µg/mL] | MIC (Staphylococcus aureus [16]) [µg/mL] | MIC (Staphylococcus aureus [17]) [µg/mL] | selectivity ratio [18] | MIC (Staphylococcus aureus [19]) [µg/mL] | MIC (Staphylococcus aureus [20]) [µg/mL] | MIC (Escherichia coli) [µg/mL] | MIC (Staphylococcus aureus [21]) [µg/mL] | MIC (Staphylococcus aureus [22]) [µg/mL] | MIC (Staphylococcus aureus [23]) [µg/mL] | MIC (Staphylococcus aureus [24]) [µg/mL] | HC50 at 1 h [25] [µg/mL] | MIC (Staphylococcus aureus [26]) [µg/mL] | further results
1 | CC[C@H](C)[C@H](NC(=O)CN)C(=O)NCC(=O)N[C@@H](C)C(=O)N[C@H](C(=O)N[C@@H](CC(C)C)C(=O)N[C@@H](CCCCN)C(=O)N[C@H](C(=O)N[C@@H](CC(C)C)C(=O)N[C@H](C(=O)N[C@H](C(=O)NCC(=O)N[C@@H](CC(C)C)C(=O)N1CCC[C@H]1C(=O)N[C@@H](C)C(=O)N[C@@H](CC(C)C)C(=O)N[C@H](C(=O)N[C@@H](CO)C(=O)N[C@@H](Cc1c[nH]c2ccccc12)C(=O)N[C@H](C(=O)N[C@@H](CCCCN)C(=O)N[C@@H](CCCNC(=N)N)C(=O)N[C@@H](CCCCN)C(=O)N[C@@H](CCCNC(=N)N)C(=O)N[C@@H](CCC(N)=O)C(=O)N[C@@H](CCC(N)=O)C(N)=O)[C@@H](C)CC)[C@@H](C)CC)[C@@H](C)O)[C@@H](C)O)C(C)C)C(C)C | – | – | – | – | – | – | – | – | – | – | – | – | – | – | Activity (Cell membrane [1]): Active; fold change (FC) (Cell membrane [2]): 7; fold change (FC) (Cell membrane [3]): 4.4
2 | CCn1cc(C(=O)O)c(=O)c2cc(F)c(N3CCNCC3)cc21 [NORFLOXACIN] | – | – | – | – | – | – | – | – | – | – | – | – | – | – | fold change (FC) (Staphylococcus aureus [4]): 128; Activity (Staphylococcus aureus [5]): Active
3 | CN[C@H](CC(C)C)C(=O)N[C@H]1C(=O)N[C@@H](CC(N)=O)C(=O)N[C@H]2C(=O)N[C@H]3C(=O)N[C@H](C(=O)N[C@H](C(=O)O)c4cc(O)cc(O)c4-c4cc3ccc4O)[C@H](O)c3ccc(c(Cl)c3)Oc3cc2cc(c3O[C@@H]2O[C@H](CO)[C@@H](O)[C@H](O)[C@H]2O[C@H]2C[C@](C)(N)[C@H](O)[C@H](C)O2)Oc2ccc(cc2Cl)[C@H]1O [VANCOMYCIN] | – | – | – | – | – | – | – | – | – | – | – | – | – | – | Activity (Staphylococcus aureus [6]): Active; Activity (Staphylococcus aureus [7]): 1.6 log10CFU/g; Activity (Staphylococcus aureus [8]): Active; Activity (Staphylococcus aureus [9]): Active; Activity (Staphylococcus aureus [10]): 97.67%; Activity (Staphylococcus aureus [11]): Active; Activity (Staphylococcus aureus [12]): Active; Activity (Staphylococcus aureus [13]): Active
4 | CCCN(CCC)CCCCCOc1ccc(C2CC(=O)c3c(OC)cc(OCCCCCN(CCC)CCC)c(CC=C(C)C)c3O2)cc1 (stereo unspecified) | 8 (≈ 11.5 µM) | 8 (≈ 11.5 µM) | 8 (≈ 11.5 µM) | 16 (≈ 23.1 µM) | 41.4 | 8 (≈ 11.5 µM) | 8 (≈ 11.5 µM) | > 128 | 8 (≈ 11.5 µM) | 8 (≈ 11.5 µM) | 8 (≈ 11.5 µM) | 8 (≈ 11.5 µM) | 331 | 16 (≈ 23.1 µM) | –
5 | COc1cc(OCCCN2CCCC(C)C2)c(CC=C(C)C)c2c1C(=O)CC(c1ccc(OCCCN3CCCC(C)C3)cc1)O2 (stereo unspecified) | 16 (≈ 25.3 µM) | 8 (≈ 12.6 µM) | 16 (≈ 25.3 µM) | 32 (≈ 50.6 µM) | > 80 | 16 (≈ 25.3 µM) | 32 (≈ 50.6 µM) | > 128 | 16 (≈ 25.3 µM) | 32 (≈ 50.6 µM) | 16 (≈ 25.3 µM) | 16 (≈ 25.3 µM) | > 1280 | 16 (≈ 25.3 µM) | –
6 | CCCCN(CCCC)CCCOc1ccc(C2CC(=O)c3c(OC)cc(OCCCN(CCCC)CCCC)c(CC=C(C)C)c3O2)cc1 (stereo unspecified) | 4 (≈ 5.77 µM) | 4 (≈ 5.77 µM) | 8 (≈ 11.5 µM) | 8 (≈ 11.5 µM) | 101 | 4 (≈ 5.77 µM) | 8 (≈ 11.5 µM) | > 128 | 8 (≈ 11.5 µM) | 8 (≈ 11.5 µM) | 8 (≈ 11.5 µM) | 4 (≈ 5.77 µM) | 810 | 8 (≈ 11.5 µM) | –
7 | COc1cc(OCCCN2CCC(C)CC2)c(CC=C(C)C)c2c1C(=O)CC(c1ccc(OCCCN3CCC(C)CC3)cc1)O2 (stereo unspecified) | 16 (≈ 25.3 µM) | 16 (≈ 25.3 µM) | 16 (≈ 25.3 µM) | 32 (≈ 50.6 µM) | > 80 | 16 (≈ 25.3 µM) | 16 (≈ 25.3 µM) | > 128 | 16 (≈ 25.3 µM) | 16 (≈ 25.3 µM) | 16 (≈ 25.3 µM) | 16 (≈ 25.3 µM) | > 1280 | 16 (≈ 25.3 µM) | –
8 | COc1cc(OCCCCN2CCN(C)CC2)c(CC=C(C)C)c2c1C(=O)CC(c1ccc(OCCCCN3CCN(C)CC3)cc1)O2 (stereo unspecified) | 32 (≈ 48.3 µM) | 16 (≈ 24.1 µM) | 32 (≈ 48.3 µM) | 32 (≈ 48.3 µM) | > 40 | 32 (≈ 48.3 µM) | 32 (≈ 48.3 µM) | > 128 | 32 (≈ 48.3 µM) | 32 (≈ 48.3 µM) | 32 (≈ 48.3 µM) | 32 (≈ 48.3 µM) | > 1280 | 32 (≈ 48.3 µM) | –
9 | CCCCN(CCCC)CCCCCOc1ccc(C2CC(=O)c3c(OC)cc(OCCCCCN(CCCC)CCCC)c(CC=C(C)C)c3O2)cc1 (stereo unspecified) | 8 (≈ 10.7 µM) | 4 (≈ 5.34 µM) | 4 (≈ 5.34 µM) | 8 (≈ 10.7 µM) | 245 | 4 (≈ 5.34 µM) | 8 (≈ 10.7 µM) | > 128 | 4 (≈ 5.34 µM) | 8 (≈ 10.7 µM) | 4 (≈ 5.34 µM) | 4 (≈ 5.34 µM) | 980 | 8 (≈ 10.7 µM) | –
10 | CCCC[N+](C)(CCCC)CCCCOc1ccc(C2CC(=O)c3c(OC)cc(OCCCC[N+](C)(CCCC)CCCC)c(CC=C(C)C)c3O2)cc1.[I-].[I-] (stereo unspecified) | 1 | 0.25 | 0.5 | 0.5 | > 2640 | 0.25 | 0.5 | 32 | 0.5 | 0.5 | 0.5 | 0.5 | > 1280 | 0.5 | –
